Holding throughout (format): cell-based
One data set has as its system Huh7. Description: WST cellular proliferation assay in Huh7 HCC cells. As to conditions: 24-48 hrs, sorafenib 1, 2 and 5 micromolar.
Data set [1] concerns HepG2. In words: WST cellular proliferation assay in HepG2 HCC cells. As to conditions: 24-48 hrs, sorafenib 1, 2 and 5 micromolar.
The subject of data set [2] is HepG2. In words: Western blot of metabolic markers (pAMPK, pAKT, pACC) in HepG2 cells. Further details: dose or concentration left out as unconfirmed. Conditions: HepG2, sorafenib (FIG. 6A). (In general: Immunoblotting shows a protein as a band on a membrane.)
The test system of another data set is HT-29. Description: 5′FU dosage determination in HT-29 cells, 96-well plate. As to conditions: HT-29, after 48 hrs.

The values below come from US10898547B2, “Method of treatment of breast or colon cancer by administering muscle stimulated myokines” (Unicorn Therapeutics, LLC, priority 2016, dated 2021).

Turning to `CNC(=O)c1cc(Oc2ccc(NC(=O)Nc3ccc(Cl)c(C(F)(F)F)c3)cc2)ccn1` [sorafenib], the cellular proliferation result in the data set with Huh7 and in the data set on HepG2 [1] was “decrease” throughout. In addition, the pAMPK expression result in the data set with HepG2 [2] is “increase”.

Take `O=c1[nH]cc(F)c(=O)[nH]1` [5′FU, 5-fluorouracil]: the “concentration showing the best effect without suggestion of cytotoxicity” value in the data set with HT-29 came out at 25 µM.
